One test relates to A2780. As to the kind of experiment: SRB assay, inhibition of tumor cell growth at 1 µM (Example 61). The class given is cell-based, Human. To be noted: 48 hours; for inhibition at 1 µM: Homo sapiens. The protocol:
(§1) 3,000-15,000 cells/well were exposed to the test compounds at a concentration of 1 µM for 48 hours, and cytotoxicty was measured using the SRB assay according to Shekan et al (J Natl Cancer Inst (1990) 82, 1107-112). Briefly, cells were plated in 96 well dishes 24 hours prior to compound addition. The assay was terminated with the addition of cold TCA to a final concentration of 10% and the plates were incubated for one hour at 4°C. The plates were then washed 5 times with water and 100µl of a Sulforhodamine B solution (4%) was added to each well. The plate was then incubated for 10 minutes at room temperature before removal of unbound dye by washing with 1% acetic acid. The bound dye was solubilized with 10 mM Trizma base and the absorbance read at OD570. Inhibitory activity of the compounds was calculated as % inhibition compared to cells treated with the solvent (DMSO). Table 2 represents the growth inhibitory activity of certain compunds of the invention across a number of tumor cell lines.

Test [1] concerns HCT-116. The description is as above. In kind it is cell-based. The following applies: 48 hours; for inhibition at 1 µM: Homo sapiens. The protocol:
as §1

Test [2] concerns MCF7. The test is described as above. In kind it is cell-based. The following applies: 48 hours; for inhibition at 1 µM: Homo sapiens. The protocol: as §1
In the next test the test system is PC-3. The description is as above. To be noted: 48 hours; for inhibition at 1 µM: Homo sapiens. In kind it is cell-based. The protocol:
as §1

The subject of test [3] is SW-620. The description is as above. The class given is cell-based. To be noted: 48 hours; for inhibition at 1 µM: Homo sapiens. The protocol:
as §1

Test [4] relates to HCT-116. As to the kind of experiment: IC50 determination by SRB assay (Example 62). The class given is cell-based. To be noted: HCY-116. The protocol:
as §1
(§2) The assay was performed similar to example 61. However, test compounds were added at various concentrations, such as from 0.001 to about 0.1 µM, from 0.1 to about 10 µM, or from 1 to about 10 µM, as the need may be, in order to estimate the IC50 values. IC50 values were determined by plotting the percentage inhibitory activity for each concentration, fitting a curve using appropriate software and estimating the concentration at which 50% inhibition of growth would occur.

Test [5] deals with MCF7. Description: IC50 determination by SRB assay (Example 62). The class given is cell-based. On the procedure:
as §1, §2

Test [6] deals with SW-620. As to the kind of experiment: IC50 determination by SRB assay (Example 62). In kind it is cell-based. On the procedure:
as §1, §2

The next test deals with A-549. Description: SRB assay, inhibition of tumor cell growth at 1 µM (Example 61). In kind it is cell-based. To be noted: for % Inhibition (1 µM): 48 hours; for inhibition at 1 µM: Homo sapiens, A549, 48 hours. On the procedure:
as §1

15 compounds from patent EP1674457B1, “Derivatives of squaric acid with anti-proliferative activity” (GPC Biotech AG, priority 2004, dated 2006) can be followed below.

Read-outs that look alike come from different tables or passages of the source.

Take “3-[2-(4-Phenoxyphenyl)-ethylamino]-4-(pyridin-3-yl-amino)-cyclobut-3-ene-1,2-dione [SQ-5]”: the “% Inhibition (1 µM)” value is greater than 80% with A2780; greater than 80% in the test on HCT-116 [1]; greater than 50% with MCF7 [2]; greater than 50% in the test on PC-3; 0% with SW-620 [3]. Moreover, the IC50 in the test with HCT-116 [4] was less than 100 nM; in the test with MCF7 [5], less than 10000 nM; in the test on SW-620 [6], less than 2000 nM.
In the case of “3-[4-Phenoxybenzylamino]-4-(pyridin-4-yl-amino)-cyclobut-3-ene-1,2-dione [SQ-34]”, the “% Inhibition (1 µM)” value in the test on A2780 is given as greater than 20%; in the test on A-549, 0%; in the test with HCT-116 [1], greater than 20%; with PC-3 it was greater than 0%; in the test on SW-620 [3], 0%.
As to “3-[6-(3,4-Dichlorophenoxy)-hexylamino)]-4-(pyridin-4yl-amino)-3-cyclobutene-1,2-dione [SQ-15]”, the “% Inhibition (1 µM)” value in the test on A2780 was greater than 80%; in the test on A-549, greater than 20%; with HCT-116 [1], greater than 80%; in the test with MCF7 [2] it was greater than 20%; in the test on PC-3, greater than 50%; with SW-620 [3], greater than 20%. Moreover, the IC50 was less than 100 nM with HCT-116 [4] and less than 500 nM in the test with SW-620 [6].
Take `O=c1c(NCCCCCOc2ccc(Cl)cc2)c(Nc2ccncc2)c1=O` [SQ-8]: the inhibition at 1 µM in the test on A2780 is greater than 80%; in the test with A-549, greater than 5%; in the test with HCT-116 [1] it was greater than 80%; with MCF7 [2] it was greater than 80%; in the test on PC-3, greater than 50%; in the test with SW-620 [3] it was greater than 20%. Besides, the IC50 with HCT-116 [4] (Homo sapiens, HCT-116) was less than 100 nM; with MCF7 [5] (Homo sapiens), less than 100 nM; in the test with SW-620 [6] (Homo sapiens), less than 2000 nM.
`O=c1c(NCCCCCCCCOc2ccc(Cl)cc2)c(Nc2ccncc2)c1=O` [SQ-9]: the inhibition at 1 µM is greater than 80% in the test on A2780; greater than 5% in the test with A-549; greater than 80% in the test with HCT-116 [1]; greater than 80% with MCF7 [2]; greater than 50% with PC-3; greater than 50% in the test on SW-620 [3]. Besides, the concentration for half-maximal inhibition (IC50) in the test with MCF7 [5] (Homo sapiens) was less than 500 nM; in the test on SW-620 [6] (Homo sapiens) it was less than 2000 nM.
For the compound `O=c1c(NCCCCOc2ccc(Cl)cc2)c(Nc2ccncc2)c1=O` [SQ-10], the inhibition at 1 µM was greater than 50% in the test on A2780; 0% in the test on A-549; greater than 50% with HCT-116 [1]; greater than 50% in the test on MCF7 [2]; greater than 20% with SW-620 [3]. For the same compound, the half-inhibitory concentration (IC50) in the test with HCT-116 [4] (Homo sapiens, HCT-116) was less than 2000 nM; in the test with MCF7 [5] (Homo sapiens), less than 2000 nM; with SW-620 [6] (Homo sapiens) it was less than 10000 nM.
Take `O=c1c(NCCCCCCCOc2ccc(Cl)cc2)c(Nc2ccncc2)c1=O` [SQ-11A]: the inhibition at 1 µM in the test with A2780 was greater than 80%; in the test with A-549, greater than 5%; with HCT-116 [1] it was greater than 80%; with MCF7 [2] it was greater than 80%; in the test on PC-3 it was greater than 20%; in the test with SW-620 [3], greater than 50%. The IC50 in the test on HCT-116 [4] (Homo sapiens, HCT-116) was less than 100 nM; in the test on MCF7 [5] (Homo sapiens), less than 100 nM; in the test on SW-620 [6] (Homo sapiens), less than 2000 nM.
Take `O=c1c(NCCCCCCCOc2ccccc2)c(Nc2ccncc2)c1=O` [SQ-11B, 3-(7-Phenoxyheptylamino)-4-(pyridin-4yl-amino)-3-cyclobutene-1,2-dione]: the inhibition at 1 µM in the test with A2780 was greater than 80%; in the test on A-549, greater than 50%; with HCT-116 [1], greater than 80%; with MCF7 [2], greater than 80%; in the test with PC-3, greater than 50%; in the test on SW-620 [3] it was greater than 50%. The IC50 with HCT-116 [4] (Homo sapiens, HCT-116) is less than 20 nM; in the test with MCF7 [5] (Homo sapiens), less than 20 nM; in the test on SW-620 [6] (Homo sapiens), less than 500 nM.
For `Cc1ccc(OCCCCCCNc2c(Nc3ccncc3)c(=O)c2=O)cc1` [SQ-13], the inhibition at 1 µM with A2780 was greater than 80%; in the test on A-549, greater than 20%; in the test with HCT-116 [1], greater than 80%; with MCF7 [2] it was greater than 5%; in the test on PC-3 it was greater than 50%; in the test on SW-620 [3], greater than 20%. In addition, the IC50 with HCT-116 [4] (Homo sapiens, HCT-116) was less than 100 nM; with SW-620 [6] (Homo sapiens), less than 2000 nM.
For the compound `COc1ccc(OCCCCCCNc2c(Nc3ccncc3)c(=O)c2=O)cc1` [SQ-14], the inhibition at 1 µM in the test on A2780 is greater than 80%; with A-549 it was greater than 20%; in the test with HCT-116 [1] it was greater than 80%; with MCF7 [2] it was greater than 5%; in the test with PC-3, greater than 50%; with SW-620 [3] it was greater than 20%. The IC50 in the test with HCT-116 [4] (Homo sapiens, HCT-116) was less than 100 nM; with SW-620 [6] (Homo sapiens), less than 2000 nM.
For the compound `O=c1c(NCCCCCCOc2ccc(C(F)(F)F)cc2)c(Nc2ccncc2)c1=O` [SQ-18, 3-[6-(4-Trifluoromethylphenoxy)-hexylamino]-4-(pyridin-4-yl-amino)-cyclobut-3-ene-1,2-dione], the inhibition at 1 µM in the test on A2780 was greater than 80%; in the test on A-549 it was greater than 20%; in the test with HCT-116 [1], greater than 80%; in the test with PC-3, greater than 50%; in the test on SW-620 [3], greater than 20%. The values for the IC50 in the test with MCF7 [5] (Homo sapiens) and with SW-620 [6] (Homo sapiens) were less than 10000 nM and less than 2000 nM, respectively.
For `N#Cc1ccc(OCCCCCCNc2c(Nc3ccncc3)c(=O)c2=O)cc1` [SQ-19, 4-{6-[3,4-Dioxo-2-(pyridin-4-ylamino)-cyclobut-1-enylamino]-hexyloxy}-benzonitrile], the inhibition at 1 µM with A2780 is greater than 50%; with A-549 it was greater than 0%; in the test with HCT-116 [1], greater than 5%; with PC-3 it was greater than 5%; with SW-620 [3] it was greater than 5%.
For `O=c1c(NCCCCCCNc2ccc(Cl)cc2)c(Nc2ccncc2)c1=O` [SQ-25, 3-[6-(4-Chlorophenylamino)-hexylamino]-4-(pyridin-4-yl-amino)-cyclobut-3-ene-1,2-dione], the inhibition at 1 µM was greater than 80% in the test on A2780; greater than 20% with A-549; greater than 80% in the test with HCT-116 [1]; greater than 5% in the test with MCF7 [2]; greater than 50% in the test on PC-3; greater than 20% in the test with SW-620 [3]. The IC50 is less than 500 nM in the test on HCT-116 [4] (Homo sapiens, HCT-116) and less than 2000 nM in the test with SW-620 [6] (Homo sapiens).
Turning to `O=c1c(NCCCCCCNc2ccc(Cl)cc2)c(Nc2cccnc2)c1=O` [SQ-26, 3-[6-(4-Chlorophenylamino)-hexylamino]-4-(pyridin-3-yl-amino)-cyclobut-3-ene-1,2-dione], the inhibition at 1 µM with A2780 is greater than 80%; in the test with A-549, greater than 50%; in the test with HCT-116 [1] it was greater than 80%; with MCF7 [2], greater than 5%; in the test on PC-3 it was greater than 50%; in the test with SW-620 [3] it was greater than 20%. The IC50 is less than 100 nM in the test with HCT-116 [4] (Homo sapiens, HCT-116) and less than 2000 nM in the test with SW-620 [6] (Homo sapiens).
For the compound `O=c1c(NCc2cccc(Oc3ccc(Cl)cc3)c2)c(Nc2cccnc2)c1=O` [SQ-33, 3-[3-(4-Chlorophenoxy)-benzylamino]-4-(pyridin-3-yl-amino)-cyclobut-3-ene-1,2-dione], the inhibition at 1 µM in the test with A2780 was greater than 20%; in the test with A-549, 0%; with HCT-116 [1], greater than 50%; in the test with MCF7 [2], 0%; in the test with PC-3, 0%; in the test on SW-620 [3] it was greater than 5%.
